As a reminder, the IC50 is the concentration at which inhibition is half-maximal.

Assay [1] has as its target T1, SARS-CoV-2 3CL^pro (Severe acute respiratory syndrome coronavirus 2 (2019-nCoV) (SARS-CoV-2), UniProt P0DTD1). Nature of the assay: 3CL^pro inhibitory activity test (fluorescence resonance energy transfer). It counts as biochemical.
In assay [2] the target is T1, SARS-CoV-2 3CL^pro. It counts as cell-based. Particulars: Western Blot. For orientation: A western blot detects proteins with antibodies after separation by electrophoresis.
The mark [3] stands for this setting: HEK293E cells transfected with 3CL^pro plasmid, 24 h treatment, read-out: DC50.
The mark [4] stands for this setting: FRET, substrate Dabcyl-KTSAVLQSGFRKME-Edans 20 μM, enzyme 0.5 μM, read-out: IC50.
Setting [5] is: HEK293E cells, 24 h, read-out: DC50 values.

Where two headings read alike, the source gives them in different places. Bounds are passed on as bounds.

`Cn1cc2cc(/N=c3\[nH]c(=O)n(Cc4cn(CCC(=O)Nc5cccc6c5CN(C5CCC(=O)NC5=O)C6=O)nn4)c(=O)n3Cc3cc(F)c(F)cc3F)c(Cl)cc2n1` (stereo not shown) [Compound 1]: the IC50 on SARS-CoV-2 3CL^pro [1] was 0.1 to 1 µM. Moreover, the DC50 on SARS-CoV-2 3CL^pro [2] (setting [3]) lay in the range of 0.1 to 1 µM.

For the molecule `Cn1cc2cc(/N=c3\[nH]c(=O)n(Cc4cn(CCCCCC(=O)Nc5cccc6c5CN(C5CCC(=O)NC5=O)C6=O)nn4)c(=O)n3Cc3cc(F)c(F)cc3F)c(Cl)cc2n1` (stereo not shown) [Compound 4, (E)-6-(4-((4-((6-chloro-2-methyl-2H-indazol-5-yl)imino)-2,6-dioxy-3-(2,4,5-Trifluorobenzyl)-1,3,5-triazin-1-yl)methyl)-1H-1,2,3-triazol-1-yl)-N-(2-Preparation of (2,6-Dioxypiperidin-3-yl)-1-oxoisoquinolin-4-yl)hexanamide], the IC50 at SARS-CoV-2 3CL^pro [1] (setting [4]) is less than 0.1 µM; on SARS-CoV-2 3CL^pro [1] (FRET, read-out: IC50 values), less than 0.1 µM. In addition, the DC50 on SARS-CoV-2 3CL^pro [2] (setting [3]) and at SARS-CoV-2 3CL^pro [2] (setting [5]) was less than 0.1 µM in each case.

`Cn1cc2cc(/N=c3\[nH]c(=O)n(Cc4cn(CCC(=O)Nc5cccc6c5C(=O)N(C5CCC(=O)NC5=O)C6=O)nn4)c(=O)n3Cc3cc(F)c(F)cc3F)c(Cl)cc2n1` (stereo not shown) [Compound 7, (E)-3-(4-((4-((6-chloro-2-methyl-2H-indazol-5-yl)imino)-2,6-dioxy-3-(2,4,5-Trifluorobenzyl)-1,3,5-triazin-1-yl)methyl)-1H-1,2,3-triazol-1-yl)-N-(2-Preparation of (2,6-dioxopiperidin-3-yl)-1,3-dioxoisoindolin-4-yl)propionamide] gave an IC50 against SARS-CoV-2 3CL^pro [1] of 0.1 to 1 µM. At SARS-CoV-2 3CL^pro [2] (setting [3]), the DC50 lay in the range of 0.1 to 1 µM.

On to `Cn1cc2cc(/N=c3\[nH]c(=O)n(Cc4cn(CCOCC(=O)Nc5cccc6c5CN(C5CCC(=O)NC5=O)C6=O)nn4)c(=O)n3Cc3cc(F)c(F)cc3F)c(Cl)cc2n1` (stereo not shown) [Compound 13, (E)-2-(2-(4-((4-((6-chloro-2-methyl-2H-indazol-5-yl)imino)-2,6-dioxy-3-(2,4,5-Trifluorobenzyl)-1,3,5-triazin-1-yl)methyl)-1H-1,2,3-triazol-1-yl)ethoxyyl)-N-(2-(2,6-dioxopiperidin-3-yl)-1-oxoisoquinolin-4-yl)acetamide], for which the IC50 at SARS-CoV-2 3CL^pro [1] was in the range of 0.1 to 1 µM. For the same molecule, the DC50 on SARS-CoV-2 3CL^pro [2] (setting [3]) and at SARS-CoV-2 3CL^pro [2] (setting [5]) was less than 0.1 µM each time.

For the molecule `Cn1cc2cc(/N=c3\[nH]c(=O)n(Cc4cn(CCOCCOCC(=O)Nc5cccc6c5CN(C5CCC(=O)NC5=O)C6=O)nn4)c(=O)n3Cc3cc(F)c(F)cc3F)c(Cl)cc2n1` (stereo not shown) [Compound 14, (E)-2-(2-(2-(4-((4-((6-chloro-2-methyl-2H-indazol-5-yl)imino)-2,6-Dioxy-3-(2,4,5-trifluorobenzyl)-1,3,5-triazin-1-yl)methyl)-1H-1,2,3-triazol-1-yl)ethoxy)ethoxy)-N-(2-(2,6-dioxopiperidin-3-yl)-1-oxoisoindolin-4-yl)acetamide], the DC50 at SARS-CoV-2 3CL^pro [2] (setting [3]) and on SARS-CoV-2 3CL^pro [2] (setting [5]) was less than 0.1 µM each time.

Molecule `Cn1cc2cc(/N=c3\[nH]c(=O)n(Cc4cn(CCOCCOCCOCC(=O)Nc5cccc6c5CN(C5CCC(=O)NC5=O)C6=O)nn4)c(=O)n3Cc3cc(F)c(F)cc3F)c(Cl)cc2n1` (stereo not shown) [Compound 15, (E)-2-(2-(2-(2-(4-((4-((6-chloro-2-methyl-2H-indazol-5-yl)imino)-2,6-Dioxy-3-(2,4,5-trifluorobenzyl)-1,3,5-triazin-1-yl)methyl)-1H-1,2,3-triazole-1-yl)ethoxy)ethoxy)ethoxy)-N-(2-(2,6-dioxopiperidin-3-yl)-1-oxoisoindolin-4-yl)ethyl Preparation of amides] had an IC50 at SARS-CoV-2 3CL^pro [1] of 0.1 to 1 µM. The DC50 at SARS-CoV-2 3CL^pro [2] (setting [3]) and on SARS-CoV-2 3CL^pro [2] (setting [5]) was less than 0.1 µM throughout.

As to `Cn1cc2cc(/N=c3\[nH]c(=O)n(Cc4cn(CCOCCOCC(=O)Nc5cccc6c5C(=O)N(C5CCC(=O)NC5=O)C6=O)nn4)c(=O)n3Cc3cc(F)c(F)cc3F)c(Cl)cc2n1` (stereo not shown) [Compound 17], the DC50 on SARS-CoV-2 3CL^pro [2] (setting [3]) and at SARS-CoV-2 3CL^pro [2] (setting [5]) was less than 0.1 µM in each case.

As for “(E)-2-(2-(4-((4-((6-chloro-2-methyl-2H-indazol-5-yl)imino)-2,6-dioxy-3-(2,4,5-Trifluorobenzyl)-1,3,5-triazin-1-yl)methyl)-1H-1,2,3-triazol-1-yl)ethoxy yl)-N-(2-(2,6-dioxopiperidin-3-yl)-1,3-dioxoisoindolin-4-yl)acetamide [Compound 16]”, on SARS-CoV-2 3CL^pro [1] (setting [4]), the IC50 was in the range of 0.1 to 1 µM. The DC50 at SARS-CoV-2 3CL^pro [2] (setting [3]) and at SARS-CoV-2 3CL^pro [2] (setting [5]) was less than 0.1 µM in each case.

Regarding “(E)-4-(4-((4-((6-chloro-2-methyl-2H-indazol-5-yl)imino)-2,6-dioxy-3-(2,4,5-Trifluorobenzyl)-1,3,5-triazin-1-yl)methyl)-1H-1,2,3-triazol-1-yl)-N-(2-Preparation of (2,6-dioxopiperidin-3-yl)-1,3-dioxoisoindolin-4-yl)butanamide [Compound 8]”, the 50% inhibitory concentration (IC50) at SARS-CoV-2 3CL^pro [1] (setting [4]) is less than 0.1 µM; at SARS-CoV-2 3CL^pro [1] (FRET, read-out: IC50 values), less than 0.1 µM. Also, the DC50 on SARS-CoV-2 3CL^pro [2] (setting [3]) and at SARS-CoV-2 3CL^pro [2] (setting [5]) was less than 0.1 µM in each case.

“(E)-5-(4-((4-((6-chloro-2-methyl-2H-indazol-5-yl)imino)-2,6-dioxy-3-(2,4,5-Trifluorobenzyl)-1,3,5-triazin-1-yl)methyl)-1H-1,2,3-triazol-1-yl)-N-(2-Preparation of (2,6-dioxopiperidin-3-yl)-1,3-dioxoisoindolin-4-yl)pentanamide [Compound 9]”: the IC50 is less than 0.1 µM on SARS-CoV-2 3CL^pro [1] (setting [4]) and less than 0.1 µM on SARS-CoV-2 3CL^pro [1] (FRET, read-out: IC50 values). Besides, the DC50 on SARS-CoV-2 3CL^pro [2] (setting [3]) and on SARS-CoV-2 3CL^pro [2] (setting [5]) was less than 0.1 µM in each case.

Regarding “(E)-6-(4-((4-((6-chloro-2-methyl-2H-indazol-5-yl)imino)-2,6-dioxy-3-(2,4,5-Trifluorobenzyl)-1,3,5-triazin-1-yl)methyl)-1H-1,2,3-triazol-1-yl)-N-(2-Preparation of (2,6-dioxopiperidin-3-yl)-1,3-dioxoisoindolin-4-yl)hexanamide [Compound 10]”, the IC50 at SARS-CoV-2 3CL^pro [1] (setting [4]) was less than 0.1 µM; at SARS-CoV-2 3CL^pro [1] (FRET, read-out: IC50 values), less than 0.1 µM. In addition, the DC50 on SARS-CoV-2 3CL^pro [2] (setting [3]) and at SARS-CoV-2 3CL^pro [2] (setting [5]) was less than 0.1 µM each time.

Consider “(E)-7-(4-((4-((6-chloro-2-methyl-2H-indazol-5-yl)imino)-2,6-dioxy-3-(2,4,5-Trifluorobenzyl)-1,3,5-triazin-1-yl)methyl)-1H-1,2,3-triazol-1-yl)-N-(2-Preparation of (2,6-Dioxypiperidin-3-yl)-1-oxoisoquinolin-4-yl)heptamide [Compound 5]”, for which the IC50 at SARS-CoV-2 3CL^pro [1] (setting [4]) was in the range of 0.1 to 1 µM. Besides, the DC50 at SARS-CoV-2 3CL^pro [2] (setting [3]) and on SARS-CoV-2 3CL^pro [2] (setting [5]) was less than 0.1 µM throughout.

As to “(E)-7-(4-((4-((6-chloro-2-methyl-2H-indazol-5-yl)imino)-2,6-dioxy-3-(2,4,5-Trifluorobenzyl)-1,3,5-triazin-1-yl)methyl)-1H-1,2,3-triazol-1-yl)-N-(2-Preparation of (2,6-dioxopiperidin-3-yl)-1,3-dioxoisoindolin-4-yl)heptamide [Compound 11]”, on SARS-CoV-2 3CL^pro [1] (setting [4]), the IC50 fell in the range of 0.1 to 1 µM. On SARS-CoV-2 3CL^pro [2] (setting [3]), the DC50 was 0.1 to 1 µM.

For the molecule “(E)-8-(4-((4-((6-Chloro-2-methyl-2H-indazol-5-yl)imino)-2,6-dioxy-3-(2,4,5-Trifluorobenzyl)-1,3,5-triazin-1-yl)methyl)-1H-1,2,3-triazol-1-yl)-N-(2-Preparation of (2,6-dioxopiperidin-3-yl)-1,3-dioxoisoindolin-4-yl)octamide [Compound 12]”, the IC50 on SARS-CoV-2 3CL^pro [1] (setting [4]) lay within 0.1 to 1 µM. Besides, at SARS-CoV-2 3CL^pro [2] (setting [3]), the DC50 was in the range of 0.1 to 1 µM.

For the origin of these results see patent US11530195B1, “Protacs targeting coronavirus 3CL protease and preparation method and application thereof” (SHAANXI PANLONG PHARMACEUTICAL CO., LTD., priority 2022, dated 2022).
